Test results reported in ChEMBL document CHEMBL5036350, “Binding site comparison for coumarin inhibitors and amine/amino acid activators of human carbonic anhydrases” (Eur J Med Chem, 2021).
Blank lines part the entries; values can stand above or below the compound they belong to.

How the values were obtained:
Conditions in all cases: filed as activator
[1] = biological target: Carbonic anhydrase 4 (Homo sapiens) (UniProt P22748); test: Activation of human carbonic anhydrase 4 by stopped flow assay
[2] = biological target: Carbonic anhydrase 5A, mitochondrial (Homo sapiens) (UniProt P35218); test: Activation of human carbonic anhydrase 5A by stopped flow assay
[3] = biological target: Carbonic anhydrase 7 (Homo sapiens) (UniProt P43166); test: Activation of human carbonic anhydrase 7 by stopped flow assay
[4] = biological target: Carbonic anhydrase 14 (Homo sapiens) (UniProt Q9ULX7); test: Activation of human carbonic anhydrase 14 by stopped flow CO2 hydrase assay
[5] = biological target: Carbonic anhydrase 13 (Homo sapiens) (UniProt Q8N1Q1); test: Activation of human carbonic anhydrase 13 by stopped flow assay
[6] = biological target: Carbonic anhydrase 2 (Homo sapiens) (UniProt P00918); test: Activation of human carbonic anhydrase 2 by stopped flow assay

Chain of Carbonic anhydrase 13 (Homo sapiens) (Q8N1Q1 whole entry, looked up): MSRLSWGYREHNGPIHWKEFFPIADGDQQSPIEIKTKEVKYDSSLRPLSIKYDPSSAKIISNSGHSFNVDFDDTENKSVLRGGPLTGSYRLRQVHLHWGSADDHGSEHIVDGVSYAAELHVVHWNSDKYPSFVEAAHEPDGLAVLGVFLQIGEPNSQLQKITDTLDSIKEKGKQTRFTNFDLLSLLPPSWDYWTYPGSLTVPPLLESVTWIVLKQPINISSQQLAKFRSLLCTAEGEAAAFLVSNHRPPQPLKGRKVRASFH
Chain of Carbonic anhydrase 4 (Homo sapiens) (P22748 whole entry): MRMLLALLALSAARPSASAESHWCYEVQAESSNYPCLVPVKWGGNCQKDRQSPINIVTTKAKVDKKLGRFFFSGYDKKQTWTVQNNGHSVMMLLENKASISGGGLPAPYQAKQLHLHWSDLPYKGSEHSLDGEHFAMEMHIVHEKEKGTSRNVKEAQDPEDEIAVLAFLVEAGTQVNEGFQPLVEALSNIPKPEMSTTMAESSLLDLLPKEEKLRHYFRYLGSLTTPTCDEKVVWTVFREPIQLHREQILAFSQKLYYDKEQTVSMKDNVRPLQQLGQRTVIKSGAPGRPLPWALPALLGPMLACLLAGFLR
Chain of Carbonic anhydrase 14 (Homo sapiens) (Q9ULX7 whole entry): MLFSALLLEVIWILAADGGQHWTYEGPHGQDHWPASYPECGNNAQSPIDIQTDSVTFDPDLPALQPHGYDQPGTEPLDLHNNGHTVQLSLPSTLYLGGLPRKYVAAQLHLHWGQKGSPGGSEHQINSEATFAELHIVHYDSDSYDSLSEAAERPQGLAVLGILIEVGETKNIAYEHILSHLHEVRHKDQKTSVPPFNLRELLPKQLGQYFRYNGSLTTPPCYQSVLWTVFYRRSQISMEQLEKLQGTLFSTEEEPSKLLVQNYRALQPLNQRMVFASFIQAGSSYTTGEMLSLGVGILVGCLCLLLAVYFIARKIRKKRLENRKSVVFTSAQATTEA
Chain of Carbonic anhydrase 5A, mitochondrial (Homo sapiens) (P35218 whole entry): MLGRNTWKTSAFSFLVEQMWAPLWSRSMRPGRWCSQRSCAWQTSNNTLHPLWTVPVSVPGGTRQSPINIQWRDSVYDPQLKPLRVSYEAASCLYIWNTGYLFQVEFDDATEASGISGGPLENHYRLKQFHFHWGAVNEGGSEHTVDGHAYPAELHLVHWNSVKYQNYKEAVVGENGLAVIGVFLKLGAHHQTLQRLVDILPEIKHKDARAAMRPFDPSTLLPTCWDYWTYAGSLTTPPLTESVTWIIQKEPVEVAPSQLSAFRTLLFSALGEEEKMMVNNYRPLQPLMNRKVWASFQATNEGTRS
Chain of Carbonic anhydrase 7 (Homo sapiens) (P43166 whole entry): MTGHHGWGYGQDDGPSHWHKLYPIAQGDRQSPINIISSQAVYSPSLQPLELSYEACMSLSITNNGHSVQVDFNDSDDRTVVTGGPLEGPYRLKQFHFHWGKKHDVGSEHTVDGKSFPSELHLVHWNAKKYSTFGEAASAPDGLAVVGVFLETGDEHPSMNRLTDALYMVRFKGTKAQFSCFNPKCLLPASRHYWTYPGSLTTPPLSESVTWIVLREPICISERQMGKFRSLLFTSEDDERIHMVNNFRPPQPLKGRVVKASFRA

KA [1]: 45 µM | KA [2]: 63 µM | KA [3]: 60 µM | KA [4]: 36 µM
Structure (SMILES): CNC[C@H](O)c1ccc(O)c(O)c1

Structure (SMILES): N[C@H](Cc1c[nH]cn1)C(=O)O
KA [5]: 0.09 µM

KA [6]: 12.5 µM | KA [5]: 4.6 µM
Structure (SMILES): NCCc1c[nH]cn1

Structure (SMILES): N[C@@H](Cc1c[nH]cn1)C(=O)O
KA [5]: 0.13 µM

KA [5]: 0.81 µM
Structure (SMILES): N[C@H](Cc1c[nH]c2ccccc12)C(=O)O
